Experimental data taken from ChEMBL document CHEMBL3286110, “Synthesis, cytotoxicity, DNA binding and topoisomerase II inhibition of cassiarin A derivatives” (Bioorg Med Chem Lett, 2014).
Activity calls are given as the source filed them. The calls are words filed in the database; no cut-off is given here.

Tests used:
HepG2 [1] = test: Cytotoxicity against human HepG2 cells assessed as cell viability at 100 uM after 3 days by MTT assay relative to control; format: functional; settings: for viability at 100 µM: HepG2, 72 h, read-out: Activity
[2] = molecular target: DNA topoisomerase 2-alpha (Homo sapiens) (UniProt P11388); test: Inhibition of human DNA topoisomerase-2-mediated decatenation of kinetoplast DNA at 30 uM after 1 hr by electrophoretic analysis relative to control
Chain of DNA topoisomerase 2-alpha (Homo sapiens) (P11388 whole entry): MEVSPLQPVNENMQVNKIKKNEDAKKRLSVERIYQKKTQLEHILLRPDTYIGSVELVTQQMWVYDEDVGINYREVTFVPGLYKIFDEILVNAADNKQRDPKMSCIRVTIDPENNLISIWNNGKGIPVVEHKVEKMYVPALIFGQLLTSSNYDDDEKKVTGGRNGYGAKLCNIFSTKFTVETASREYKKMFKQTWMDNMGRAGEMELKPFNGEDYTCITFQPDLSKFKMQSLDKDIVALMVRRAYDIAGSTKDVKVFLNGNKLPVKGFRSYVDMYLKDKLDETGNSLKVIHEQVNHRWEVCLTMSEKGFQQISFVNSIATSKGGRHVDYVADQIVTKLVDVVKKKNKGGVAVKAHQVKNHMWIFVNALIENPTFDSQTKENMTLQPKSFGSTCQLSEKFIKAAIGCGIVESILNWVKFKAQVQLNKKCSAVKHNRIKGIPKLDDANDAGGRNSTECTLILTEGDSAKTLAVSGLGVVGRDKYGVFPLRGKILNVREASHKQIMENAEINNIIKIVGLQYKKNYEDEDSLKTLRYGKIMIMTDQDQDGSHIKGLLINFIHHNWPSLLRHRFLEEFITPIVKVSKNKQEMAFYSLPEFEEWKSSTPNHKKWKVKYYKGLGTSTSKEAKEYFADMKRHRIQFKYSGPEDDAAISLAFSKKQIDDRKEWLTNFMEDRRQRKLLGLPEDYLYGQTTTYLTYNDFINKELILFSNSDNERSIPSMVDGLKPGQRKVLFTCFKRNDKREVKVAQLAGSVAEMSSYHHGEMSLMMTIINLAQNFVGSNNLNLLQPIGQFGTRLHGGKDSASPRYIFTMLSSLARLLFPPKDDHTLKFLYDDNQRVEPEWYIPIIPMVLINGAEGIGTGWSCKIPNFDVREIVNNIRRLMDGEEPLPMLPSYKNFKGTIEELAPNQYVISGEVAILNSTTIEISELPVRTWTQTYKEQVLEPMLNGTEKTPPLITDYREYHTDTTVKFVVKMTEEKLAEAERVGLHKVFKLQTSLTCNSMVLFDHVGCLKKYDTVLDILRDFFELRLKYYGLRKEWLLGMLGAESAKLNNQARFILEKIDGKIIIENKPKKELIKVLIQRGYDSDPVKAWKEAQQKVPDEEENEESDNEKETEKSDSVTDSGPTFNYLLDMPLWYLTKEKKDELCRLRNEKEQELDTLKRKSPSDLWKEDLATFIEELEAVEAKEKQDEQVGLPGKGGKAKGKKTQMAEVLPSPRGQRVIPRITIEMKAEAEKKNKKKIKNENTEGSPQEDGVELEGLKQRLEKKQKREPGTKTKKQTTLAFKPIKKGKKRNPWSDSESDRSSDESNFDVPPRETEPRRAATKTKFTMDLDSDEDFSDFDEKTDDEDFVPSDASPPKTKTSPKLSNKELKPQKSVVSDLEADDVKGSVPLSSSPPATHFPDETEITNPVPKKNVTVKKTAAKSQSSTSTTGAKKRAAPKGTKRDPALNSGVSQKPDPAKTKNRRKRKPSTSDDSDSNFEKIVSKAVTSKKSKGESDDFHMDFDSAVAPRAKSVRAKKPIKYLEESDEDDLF

Calf thymus DNA [3] = test: Binding affinity to calf thymus DNA assessed as melting temperature at 30 uM by thermal denaturation assay; format: nucleic-acid assay; settings: Bos taurus
SW-620 [4] = test: Cytotoxicity against human SW620 cells assessed as cell viability at 100 uM after 3 days by MTT assay relative to control; format: functional; settings: for viability at 100 µM: SW-620, 72 h, read-out: Activity
[5] = (§1) Cytotoxicity against human KATO III cells assessed as cell viability at 100 uM after 3 days by MTT assay relative to control; format: functional; settings: 72 h, read-out: Activity
BT-474 [6] = test: Cytotoxicity against human BT474 cells assessed as cell viability at 100 uM after 3 days by MTT assay relative to control; format: functional; settings: for viability at 100 µM: BT-474, 72 h, read-out: Activity
[7] = molecular target: DNA topoisomerase 2-alpha (Homo sapiens) (UniProt P11388); test: Inhibition of human DNA topoisomerase-2-mediated decatenation of kinetoplast DNA at 10 uM after 1 hr by electrophoretic analysis relative to control
[8] = (§2) Cytotoxicity against human ChaGo cells assessed as cell viability at 100 uM after 3 days by MTT assay relative to control; format: functional; settings: 72 h, read-out: Activity
WI-38 = test: Cytotoxicity against human WI38 cells at 1 to 60 uM after 3 days by MTT assay; format: cell-based; settings: wi-38, 72 h
[9] = Cytotoxicity against human CaSki cells after 3 days by MTT assay; format: functional, cell-based; settings: Ca-Ski, 72 h
[10] = molecular target: DNA topoisomerase 2-alpha (Homo sapiens) (UniProt P11388); test: Inhibition of human DNA topoisomerase-2-mediated decatenation of kinetoplast DNA at 100 uM after 1 hr by electrophoretic analysis relative to control
[11] = molecular target: DNA topoisomerase 2-alpha (Homo sapiens) (UniProt P11388); test: Inhibition of human DNA topoisomerase-2-mediated decatenation of kinetoplast DNA at 50 uM after 1 hr by electrophoretic analysis relative to control
[12] = (§3) Cytotoxicity against human CaSki cells assessed as cell viability at 100 uM after 3 days by MTT assay relative to control; format: functional; settings: Ca-Ski, 72 h, read-out: Activity
SW-620 [13] = test: Cytotoxicity against human SW620 cells after 3 days by MTT assay; format: functional, cell-based; settings: SW-620, 72 h
[14] = Cytotoxicity against human KATO III cells after 3 days by MTT assay; format: functional, cell-based, KATO III cell; settings: 72 h
Bos taurus [15] = species on record: Bos taurus; test: Displacement of ethidium bromide from calf thymus DNA by fluorescence spectroscopic analysis
HepG2 [16] = test: Cytotoxicity against human HepG2 cells after 3 days by MTT assay; format: functional, cell-based; settings: HepG2, 72 h
[17] = Cytotoxicity against human ChaGo cells after 3 days by MTT assay; format: functional, cell-based; settings: 72 h
Bos taurus [18] = species on record: Bos taurus; test: Displacement of ethidium bromide from calf thymus DNA by Stern-Volmer plot analysis
Calf thymus DNA [19] = test: Binding affinity to calf thymus DNA assessed as change in melting temperature at 30 uM by thermal denaturation assay; format: nucleic-acid assay; settings: Bos taurus
KATO III cell = test: as §1; format: functional
ChaGo = test: as §2; format: functional
Ca-Ski = test: as §3; format: functional
BT-474 [20] = test: Cytotoxicity against human BT474 cells after 3 days by MTT assay; format: functional, cell-based; settings: BT-474, 72 h

| SMILES | Tm (Calf thymus DNA [3]) | Activity (HepG2 [1]) | Activity (SW-620 [4]) | Activity (KATO III cell) | Activity (BT-474 [6]) | Activity (ChaGo) | Activity (Ca-Ski) | further results |
| --- | --- | --- | --- | --- | --- | --- | --- | --- |
| CC1=Cc2nc(C)cc3cc(O[Se]c4ccccc4)cc(c23)O1 | 70 °C |  |  |  |  |  |  | viability at 100 µM (HepG2 [1]): > 20%; inhibition [2]: 75.7%; viability at 100 µM (SW-620 [4]): > 20%; viability at 100 µM [5]: > 20%; viability at 100 µM (BT-474 [6]): > 20%; inhibition [7]: 31.5%; viability at 100 µM [8]: > 20%; Activity (WI-38): Non-toxic; IC50 [9]: 29.7 µM; inhibition [10]: > 95%; inhibition [11]: 95.7% |
| CC1=Cc2nc(C)cc3cc(O)cc(c23)O1 [CASSIARIN A] | 70.7 °C |  |  |  |  |  |  | viability at 100 µM (HepG2 [1]): > 20%; viability at 100 µM (SW-620 [4]): > 20%; viability at 100 µM [5]: > 20%; viability at 100 µM (BT-474 [6]): > 20%; viability at 100 µM [8]: > 20%; viability at 100 µM [12]: > 20% |
| CC1=Cc2nc(C)cc3cc(OCCN(C)C)cc(c23)O1 | > 86 °C |  |  |  |  |  |  | IC50 (SW-620 [13]): 9.85 µM; IC50 [14]: 9.82 µM; viability at 100 µM (BT-474 [6]): > 20%; Kapp (Bos taurus [15]): 2.1 ×10⁶ /M; IC50 (HepG2 [16]): 10.1 µM; Activity (WI-38): Non-toxic; IC50 [9]: 30.2 µM; IC50 [17]: 29.5 µM; KSV (Bos taurus [18]): 2.1 ×10⁴ /M; inhibition [10]: 30.1%; ΔTm (Calf thymus DNA [19]): > 15.3 °C |
| CC1=Cc2nc(C)cc3cc(OC(=O)c4ccc([N+](=O)[O-])cc4)cc(c23)O1 |  | inactive | inactive | inactive | inactive | inactive | inactive |  |
| CN(C)CCN1C(=O)c2cccc3cc(N)cc(c23)C1=O [AMONAFIDE] | 78.9 °C |  |  |  |  |  |  | IC50 (SW-620 [13]): 0.32 µM; IC50 (BT-474 [20]): 37.8 µM; IC50 [14]: 9.24 µM; IC50 (HepG2 [16]): 1.71 µM; Activity (WI-38): Toxic; IC50 [9]: 9.96 µM; IC50 [17]: 1.05 µM; inhibition [10]: 61.8%; ΔTm (Calf thymus DNA [19]): 8.2 °C |
| CC1=Cc2nc(C)cc3cc(OC(=O)c4ccc(Cl)cc4)cc(c23)O1 |  | inactive | inactive | inactive | inactive | inactive | inactive |  |
| CC1=Cc2nc(C)cc3cc(OCCO)cc(c23)O1 |  | inactive | inactive | inactive | inactive | inactive | inactive |  |
| CC1=Cc2nc(C)cc3cc(OC(=O)CCCBr)cc(c23)O1 |  | inactive | inactive | inactive | inactive | inactive | inactive |  |
| CC1=Cc2nc(C)cc3cc(OCCOCCO)cc(c23)O1 | 75.7 °C |  |  |  |  |  |  | IC50 [14]: 10.1 µM; viability at 100 µM (SW-620 [4]): > 20%; viability at 100 µM (BT-474 [6]): > 20%; IC50 (HepG2 [16]): 29.8 µM; viability at 100 µM [8]: > 20%; Activity (WI-38): Non-toxic; KSV (Bos taurus [18]): 4.3 ×10³ /M; inhibition [10]: inactive; viability at 100 µM [12]: > 20%; ΔTm (Calf thymus DNA [19]): 4.8 °C |
| CC1=Cc2nc(C)cc3cc(OC(=O)c4ccc(C)cc4)cc(c23)O1 |  | inactive | inactive | inactive | inactive | inactive | inactive |  |
| CCCCC(=O)Oc1cc2c3c(nc(C)cc3c1)C=C(C)O2 |  | inactive | inactive | inactive | inactive | inactive | inactive |  |
| CCC(=O)Oc1cc2c3c(nc(C)cc3c1)C=C(C)O2 |  | inactive | inactive | inactive | inactive | inactive | inactive |  |
| CCCC(=O)Oc1cc2c3c(nc(C)cc3c1)C=C(C)O2 |  | inactive | inactive | inactive | inactive | inactive | inactive |  |
| CC1=Cc2nc(C)cc3cc(OC(=O)c4ccc(F)cc4)cc(c23)O1 |  | inactive | inactive | inactive | inactive | inactive | inactive |  |
